Experimental data reported in the NIST ThermoML archive (doi:10.1016/j.tca.2019.178383).

Experiment: xn = mol fraction of the nth substance listed
Conditions: for surface tension liquid-gas: Maximal bubble pressure; for mass density: 100 kPa, Liquid, Vibrating tube method

CCn1cc[n+](CCOC)c1.O=S(=O)([O-])C(F)(F)F + CC(C)O
Conditions	mass density [kg/m3]	surface tension liquid-gas [mN/m]
288.15 K, x1 = 0.0997	929.227	21.4
288.15 K, x1 = 0.2004	1030.66	22.3
288.15 K, x1 = 0.3004	1105.98	23.8
288.15 K, x1 = 0.4003	1163.83	25.5
288.15 K, x1 = 0.5004	1210.18	27.2
288.15 K, x1 = 0.6008	1248.32	28.9
288.15 K, x1 = 0.7	1279.5	30.8
288.15 K, x1 = 0.7998	1306.12	32.8
288.15 K, x1 = 0.9003	1329.28	34.5
288.15 K, x1 = 1	1348.94	36.3
293.15 K, x1 = 0.0997	925.015	21.1
293.15 K, x1 = 0.2004	1026.4	22
293.15 K, x1 = 0.3004	1101.69	23.6
293.15 K, x1 = 0.4003	1159.55	25.3
293.15 K, x1 = 0.5004	1205.9	27
293.15 K, x1 = 0.6008	1244.05	28.6
293.15 K, x1 = 0.7	1275.23	30.6
293.15 K, x1 = 0.7998	1301.86	32.6
293.15 K, x1 = 0.9003	1325.01	34.3
293.15 K, x1 = 1	1344.66	36.1
298.15 K, x1 = 0.0997	920.772	20.7
298.15 K, x1 = 0.2004	1022.12	21.7
298.15 K, x1 = 0.3004	1097.4	23.3
298.15 K, x1 = 0.4003	1155.27	25
298.15 K, x1 = 0.5004	1201.63	26.7
298.15 K, x1 = 0.6008	1239.8	28.4
298.15 K, x1 = 0.7	1270.99	30.4
298.15 K, x1 = 0.7998	1297.61	32.3
298.15 K, x1 = 0.9003	1320.76	34.1
298.15 K, x1 = 1	1340.41	35.8
303.15 K, x1 = 0.0997	916.497	20.3
303.15 K, x1 = 0.2004	1017.82	21.5
303.15 K, x1 = 0.3004	1093.11	23.1
303.15 K, x1 = 0.4003	1150.99	24.8
303.15 K, x1 = 0.5004	1197.38	26.5
303.15 K, x1 = 0.6008	1235.56	28.2
303.15 K, x1 = 0.7	1266.76	30.1
303.15 K, x1 = 0.7998	1293.38	32.1
303.15 K, x1 = 0.9003	1316.53	33.9
303.15 K, x1 = 1	1336.17	35.5
308.15 K, x1 = 0.0997	912.188	20
308.15 K, x1 = 0.2004	1013.52	21.2
308.15 K, x1 = 0.3004	1088.82	22.8
308.15 K, x1 = 0.4003	1146.73	24.6
308.15 K, x1 = 0.5004	1193.13	26.3
308.15 K, x1 = 0.6008	1231.33	28
308.15 K, x1 = 0.7	1262.54	29.8
308.15 K, x1 = 0.7998	1289.17	31.9
308.15 K, x1 = 0.9003	1312.32	33.6
308.15 K, x1 = 1	1331.96	35.3
313.15 K, x1 = 0.0997	907.842	19.7
313.15 K, x1 = 0.2004	1009.19	21
313.15 K, x1 = 0.3004	1084.53	22.6
313.15 K, x1 = 0.4003	1142.47	24.4
313.15 K, x1 = 0.5004	1188.9	26.1
313.15 K, x1 = 0.6008	1227.11	27.8
313.15 K, x1 = 0.7	1258.34	29.6
313.15 K, x1 = 0.7998	1284.98	31.7
313.15 K, x1 = 0.9003	1308.13	33.3
313.15 K, x1 = 1	1327.77	35.1
318.15 K, x1 = 0.0997	903.442	19.4
318.15 K, x1 = 0.2004	1004.85	20.7
318.15 K, x1 = 0.3004	1080.23	22.4
318.15 K, x1 = 0.4003	1138.22	24.2
318.15 K, x1 = 0.5004	1184.68	25.9
318.15 K, x1 = 0.6008	1222.91	27.6
318.15 K, x1 = 0.7	1254.16	29.4
318.15 K, x1 = 0.7998	1280.8	31.5
318.15 K, x1 = 0.9003	1303.96	33.1
318.15 K, x1 = 1	1323.6	34.9
